# Laboratory results: publication PMC10799709, “Characterization of a New Immunosuppressive and Antimicrobial Peptide, DRS-DA2, Isolated from the Mexican Frog, Pachymedusa dacnicolor” (International Journal of Inflammation, 2024)
# Peptide text beside a SMILES is read from it.
# How the values were obtained:
# Mouse erythrocytes = assay: Hemolytic test, mouse erythrocytes; format: cell-based; conditions: mouse erythrocytes in PBS, 1 h, absorbance 550 nm; no death at 10 µM; 3 independent experiments in triplicate
# Description: (§1) Blood from a mouse or healthy adult donor was centrifuged at 800 × g for 10 minutes at 4°C. The pellet containing red blood cells was then washed three times in 10 volumes of PBS and was diluted in 4% (v/v) in PBS. Blood and peptides at different concentrations were then incubated at 37°C for one hour. Cells were centrifuged 1500 × g for 5 minutes at room temperature. Hemolysis was measured in the supernatant at 550 nm. Red blood cells lysed with 1% Triton X-100 was used as a control, achieving 100% hemolysis. Percent hemolysis was calculated using the following formula: % hemolysis = 100% × [(A − A0)/(At − A0)], where A represents the absorbance of the peptide sample at 550 nm and A0 and At represent 0% and 100% hemolysis determined in 10 mM PBS and 0.1% Triton X-100, respectively.
# A549 cells = assay: A549 viability, CCK8 assay; format: cell-based, human; conditions: A549, 1 h, 37°C, duplicate, no death at 10 µM
# Source text: (§2) Human leukocytes were provided by the « Banco de Sangre del Hospital Regional del IMSS » and the Centro Estatal de la Transfusión Sanguínea in Cuernavaca, Morelos, Mexico. Institutional committees approved the acquisition and isolation of human peripheral blood leukocytes. Human leukocytes and erythrocytes were obtained as previously described. Mouse bone marrow cells (MBMCs) and erythrocytes were obtained from C57BL/6 or Balb/c mice. Mouse epithelial cells were isolated from C57Bl/6 mice, and human epithelial cells were recovered from surgery residues. In brief, intestinal tissues were minced and digested in 450-U/mL collagenase I, 125-U/mL collagenase XI, 60-U/mL hyaluronidase, and 60-U/mL DNAse for 1 hour before gradient density centrifugation on Histopaque-1083 (Sigma-Aldrich, St. Louis, MO). A549 cells (ATCC CCL-185), a human lung carcinoma cell line, were cultivated at 37°C in a humid atmosphere and 5% CO2, with DMEM advanced medium (Gibco®) supplemented with 5% of fetal bovine serum (FBS), 2 mM of glutamine, 100 U of penicillin, and 50 μg/mL of streptomycin (Gibco®). Jurkat E6-1 cells were cultured in an RPMI medium supplemented with 5% fetal bovine serum.
# For the cell line A549, viability was assessed by the CCK8 assay (DoJindo) as indicated by the manufacturer. […] The absorbance at 450 nm was measured after 3 h incubation.
# [1] = system: Mouse primary epithelial cells; assay: Cytotoxic assay on mouse primary epithelial cells; format: cell-based; conditions: 2 h, 37°C, flow cytometry, no death at 10 µM
# Source text: as §2, with “A549 cells (ATCC CCL-185), a human lung carcinoma cell line, were cultivated at 37°C in a humid atmosphere and 5% CO2, with DMEM advanced medium (Gibco®) supplemented with 5% of fetal bovine serum (FBS), 2 mM of glutamine, 100 U of penicillin, and 50 μg/mL of streptomycin (Gibco®). Jurkat E6-1 cells were cultured in an RPMI medium supplemented with 5% fetal bovine serum.” left out
# (§3) 5.10^5 mouse or human leukocytes or primary epithelial cells, A549 or Jurkat E6-1 cells, were incubated in 100 µl RPMI or DMEM containing 0.5% BSA and […] with the peptides at different concentrations for 2 hours at 37°C, 5% CO2. […] Viability of leukocytes and Jurkat cells was determined by adding a viability dye (eFluor 780) and counted by FacsCanto flow cytometry with a predetermined number of beads (Polybead, Carboxylate Microspheres, Polysciences, Inc., Le Perray-en-Yvelines, France) added to the samples. […] Data were analyzed with FlowJo.
# [2] = system: Human primary epithelial cells; assay: Cytotoxic assay on human primary epithelial cells; format: cell-based; conditions: 2 h, 37°C, flow cytometry, no death at 10 µM
# Source text: as §2, with “A549 cells (ATCC CCL-185), a human lung carcinoma cell line, were cultivated at 37°C in a humid atmosphere and 5% CO2, with DMEM advanced medium (Gibco®) supplemented with 5% of fetal bovine serum (FBS), 2 mM of glutamine, 100 U of penicillin, and 50 μg/mL of streptomycin (Gibco®). Jurkat E6-1 cells were cultured in an RPMI medium supplemented with 5% fetal bovine serum.” left out
# as §3
# [3] = In vitro peptide stability in rat serum, RP-HPLC; format: in vitro ADME; conditions: 37°C, 300 µM peptide; for degradation of the peptide: RPMI with 25% (v/v) rat serum
# Description: (§4) One mL of RPMI supplemented with 25% (v/v) rat serum was equilibrated at 37°C for 15 min before adding the peptide (final concentration of 300 µM). At different time points, 300 µL of the reaction solution was removed and completed to 600 µL with 96% ethanol. The sample was cooled at 4°C for 15 min and then spun to precipitate serum proteins. The supernatant was recovered and submitted to the viability assay as described in the cytotoxic assay section or analyzed by RP-HPLC on C18–300 100 × 4, 6 mm. A linear gradient from 100% buffer A (0.1% TFA in H20) to 60% of buffer B (0.1% TFA in ACN) was used over 10 min with a flow rate of 1 mL/min. The absorbance was detected at both 220 nm and 280 nm.
# Human erythrocytes = assay: Hemolytic test, human erythrocytes; format: cell-based; conditions: human erythrocytes in PBS, 1 h, 37°C, absorbance 550 nm; no death at 10 µM; 3 independent experiments in triplicate
# Description: as §1
# mouse bone marrow cells = assay: Cytotoxic activity of peptide recovered after serum incubation; format: cell-based; conditions: then 5 µM on mouse bone marrow cells for 2 h
# Description: 5.10^5 mouse or human leukocytes or primary epithelial cells, A549 or Jurkat E6-1 cells, were incubated in 100 µl RPMI or DMEM containing 0.5% BSA and […] with the peptides at different concentrations for 2 hours at 37°C, 5% CO2. Incubation of the cells with DMSO 30% was used as a positive control. For the kinetic assay, the cells were incubated with the peptides for different time periods. Viability of leukocytes and Jurkat cells was determined by adding a viability dye (eFluor 780) and counted by FacsCanto flow cytometry with a predetermined number of beads (Polybead, Carboxylate Microspheres, Polysciences, Inc., Le Perray-en-Yvelines, France) added to the samples. Mouse leukocytes were stained with anti-mouse Ly6G-PE, anti-mouse NK1.1-PE, anti-mouse CD11b-PerCP, and anti-mouse F4/80-APC (BD Biosciences, Rungis, France). Human leukocytes were stained with anti-human CD45-PB, anti-human CD16-PE-Cy7, anti-human CD56-PE-Cy7, anti-human CD14-FITC, anti-human CD3V500, anti-human CD8-APC, and anti-human CD4-PE. Data were analyzed with FlowJo.
# as §4
SMILES,toxicity for erythrocytes (hemolysis) (Mouse erythrocytes),Trp λmax in aqueous buffer,toxicity for A549 cells (A549 cells),toxicity for primary epithelial cells [1],toxicity for primary epithelial cells [2],"time of resistance to enzymatic degradation ([3]; rat serum, title of Figure 7)",toxicity for erythrocytes (hemolysis) (Human erythrocytes),"degradation of the peptide ([3]; 24 h, RP-HPLC, UV 220 nm)","degradation of the peptide ([3]; after 30 min, RP-HPLC C18, UV 220 nm, intact peak area vs sum of all peptide areas, n = 3 independent experiments)","percentage of dead cells versus t0 peptide (mouse bone marrow cells; peptide (300 µM) pre-incubated with serum 15 min (t15), flow cytometry)",percentage of dead cells versus t0 peptide (mouse bone marrow cells; peptide pre-incubated with serum 30 min (t30)),induction of cell death (mouse bone marrow cells; peptide pre-incubated with serum 24 h (t24))
CSCC[C@H](NC(=O)[C@H](CC(N)=O)NC(=O)[C@@H](NC(=O)[C@@H](NC(=O)[C@H](C)NC(=O)[C@H](CC(N)=O)NC(=O)[C@H](CC(C)C)NC(=O)[C@@H](NC(=O)[C@H](C)NC(=O)[C@H](CCCCN)NC(=O)CNC(=O)[C@H](C)NC(=O)[C@@H](NC(=O)[C@H](CCCCN)NC(=O)CNC(=O)[C@@H](NC(=O)[C@H](CCCCN)NC(=O)[C@H](CCCCN)NC(=O)[C@H](CC(C)C)NC(=O)[C@H](CC(C)C)NC(=O)[C@@H](NC(=O)[C@H](CCCCN)NC(=O)[C@H](Cc1c[nH]c2ccccc12)NC(=O)[C@H](CC(C)C)NC(=O)[C@H](C)N)[C@@H](C)O)C(C)C)C(C)C)C(C)C)C(C)C)[C@@H](C)O)C(=O)N[C@@H](C)C(=O)N[C@@H](CC(N)=O)C(=O)N[C@@H](CCC(N)=O)C(=O)N[C@@H](CC(N)=O)C(=O)N[C@@H](CCC(=O)O)C(=O)N[C@@H](CCC(N)=O)C(=O)O [DRS-DA2NEQ] (H-ALWKTLLKKVGKVAGKAVLNAVTNMANQNEQ-OH),not toxic,355 nm,not toxic,not toxic,not toxic,15 min,not toxic,–,–,–,–,–
CSCC[C@H](NC(=O)[C@H](CC(N)=O)NC(=O)[C@@H](NC(=O)[C@@H](NC(=O)[C@H](C)NC(=O)[C@H](CC(N)=O)NC(=O)[C@H](CC(C)C)NC(=O)[C@@H](NC(=O)[C@H](C)NC(=O)[C@H](CCCCN)NC(=O)CNC(=O)[C@H](C)NC(=O)[C@@H](NC(=O)[C@H](CCCCN)NC(=O)CNC(=O)[C@@H](NC(=O)[C@H](CCCCN)NC(=O)[C@H](CCCCN)NC(=O)[C@H](CC(C)C)NC(=O)[C@H](CC(C)C)NC(=O)[C@@H](NC(=O)[C@H](CCCCN)NC(=O)[C@H](Cc1c[nH]c2ccccc12)NC(=O)[C@H](CC(C)C)NC(=O)[C@H](C)N)[C@@H](C)O)C(C)C)C(C)C)C(C)C)C(C)C)[C@@H](C)O)C(=O)N[C@@H](C)C(=O)N[C@@H](CC(N)=O)C(=O)N[C@@H](CCC(N)=O)C(=O)N[C@@H](CC(N)=O)C(=O)O [DRS-DA2N] (H-ALWKTLLKKVGKVAGKAVLNAVTNMANQN-OH),not toxic,355 nm,not toxic,not toxic,not toxic,–,not toxic,totally degraded,40%,no significant differences,started to decrease,almost completely abolished
